Experimental data published in patent publication US7960419B2, “Substituted carboxamides” (Eli Lilly and Company, priority 2006, dated 2011).

Key:
Male Sprague Dawley rats = assay: Rotorod test; type: in vivo, rat; settings: at the doses active in the pain models
Protocol: (§1) These well known pain models conveniently may be carried out as summarized below. […] All data are analyzed by ANOVA and Dunnett's t-test using JMPv4.1 (SAS Institute Inc., Cary, N.C.) statistical software unless otherwise indicated. Data are expressed as means±SEM. Specific conditions for each model are briefly described.
(§2) Formalin model: Drug is administered prior to formalin (50 μl, 5%), injected s.c. into the dorso-lateral surface of the right hindpaw. Paw-licking behavior is measured in an automated assay, as number of events, from 0-50 minutes after formalin. Data are expressed as paw-licking pain behavior events in early phase (0-5 minutes) or late phase (15-40 minutes). […] Two weeks later, mechanical allodynia behavior is measured using von Frey filaments using incremental bending forces (0.5-15 g) at various time points after drug administration. […] Thermal hyperalgesia is measured using a radiant heat source, with a 30 second cut off to prevent tissue damage. Paw withdrawal latency in seconds is measured as the difference between the inflammed paw and the non-inflammed left paw. […] Mechanical allodynia behavior is measured using von Frey filaments using incremental bending forces (0.5-15 g) at 15 minutes and 1 hour after capsaicin. […] Data are analyzed by ANOVA and Dunnett's t-test using JMPv4.1 (SAS Institute Inc., Cary, N.C.) statistical software. Data are expressed as means±SEM.

[1] = tested on: fasted male Harlan Sprague Dawley rats; assay: Capsaicin model; type: in vivo, rat; settings: fasted male HSD rats, at doses with no deficit in the rotorod test
Protocol: as §1, §2

[2] = tested on: fasted male Harlan Sprague Dawley rats; assay: Tail Flick model; type: in vivo, rat; settings: fasted male HSD rats, at doses with no deficit in the rotorod test
Protocol: as §1, §2

[3] = tested on: fasted male Harlan Sprague Dawley rats; assay: Formalin model; type: in vivo, rat
Protocol: as §1
Formalin model: Drug is administered prior to formalin (50 μl, 5%), injected s.c. into the dorso-lateral surface of the right hindpaw. Paw-licking behavior is measured in an automated assay, as number of events, from 0-50 minutes after formalin. Data are expressed as paw-licking pain behavior events in early phase (0-5 minutes) or late phase (15-40 minutes). […] L5/L6 Spinal Nerve ligation model: Tight ligation is performed on L5 and L6 spinal nerves (one side only). Two weeks later, mechanical allodynia behavior is measured using von Frey filaments using incremental bending forces (0.5-15 g) at various time points after drug administration. Carrageenan model: Carrageenan (100 μl, 3%) is injected into the plantar surface of the right paw, and drug is administered two hours after carrageenan. Thermal hyperalgesia is measured using a radiant heat source, with a 30 second cut off to prevent tissue damage. Paw withdrawal latency in seconds is measured as the difference between the inflammed paw and the non-inflammed left paw. Capsaicin model: Drug is administered prior to capsaicin. Capsaicin (25 μl, 30 μg) in olive oil is injected into the plantar surface of the right paw. Mechanical allodynia behavior is measured using von Frey filaments using incremental bending forces (0.5-15 g) at 15 minutes and 1 hour after capsaicin. Tail Flick model: Radiant heat source at base of tail with 10 sec cut off is used to elicit tail flick response at various time points after drug administration. Rotorod test: Male Sprague Dawley rats (180-230 g, Harlan labs, Indianapolis) are used for the rotorod test. […] Data are analyzed by ANOVA and Dunnett's t-test using JMPv4.1 (SAS Institute Inc., Cary, N.C.) statistical software. Data are expressed as means±SEM.

[4] = molecular target: T1, human recombinant mGlu1a receptor (Homo sapiens, UniProt Q13255); assay: glutamate induced calcium flux (FLIPR, Fluo-3) in AV-12 cells expressing mGlu1a; type: cell-based; settings: inhibition of peak fluorescence response to glutamate at EC90% (10 μM)
T1 construct: expressed in transfected cells
T1 sequence (Q13255 19-1194): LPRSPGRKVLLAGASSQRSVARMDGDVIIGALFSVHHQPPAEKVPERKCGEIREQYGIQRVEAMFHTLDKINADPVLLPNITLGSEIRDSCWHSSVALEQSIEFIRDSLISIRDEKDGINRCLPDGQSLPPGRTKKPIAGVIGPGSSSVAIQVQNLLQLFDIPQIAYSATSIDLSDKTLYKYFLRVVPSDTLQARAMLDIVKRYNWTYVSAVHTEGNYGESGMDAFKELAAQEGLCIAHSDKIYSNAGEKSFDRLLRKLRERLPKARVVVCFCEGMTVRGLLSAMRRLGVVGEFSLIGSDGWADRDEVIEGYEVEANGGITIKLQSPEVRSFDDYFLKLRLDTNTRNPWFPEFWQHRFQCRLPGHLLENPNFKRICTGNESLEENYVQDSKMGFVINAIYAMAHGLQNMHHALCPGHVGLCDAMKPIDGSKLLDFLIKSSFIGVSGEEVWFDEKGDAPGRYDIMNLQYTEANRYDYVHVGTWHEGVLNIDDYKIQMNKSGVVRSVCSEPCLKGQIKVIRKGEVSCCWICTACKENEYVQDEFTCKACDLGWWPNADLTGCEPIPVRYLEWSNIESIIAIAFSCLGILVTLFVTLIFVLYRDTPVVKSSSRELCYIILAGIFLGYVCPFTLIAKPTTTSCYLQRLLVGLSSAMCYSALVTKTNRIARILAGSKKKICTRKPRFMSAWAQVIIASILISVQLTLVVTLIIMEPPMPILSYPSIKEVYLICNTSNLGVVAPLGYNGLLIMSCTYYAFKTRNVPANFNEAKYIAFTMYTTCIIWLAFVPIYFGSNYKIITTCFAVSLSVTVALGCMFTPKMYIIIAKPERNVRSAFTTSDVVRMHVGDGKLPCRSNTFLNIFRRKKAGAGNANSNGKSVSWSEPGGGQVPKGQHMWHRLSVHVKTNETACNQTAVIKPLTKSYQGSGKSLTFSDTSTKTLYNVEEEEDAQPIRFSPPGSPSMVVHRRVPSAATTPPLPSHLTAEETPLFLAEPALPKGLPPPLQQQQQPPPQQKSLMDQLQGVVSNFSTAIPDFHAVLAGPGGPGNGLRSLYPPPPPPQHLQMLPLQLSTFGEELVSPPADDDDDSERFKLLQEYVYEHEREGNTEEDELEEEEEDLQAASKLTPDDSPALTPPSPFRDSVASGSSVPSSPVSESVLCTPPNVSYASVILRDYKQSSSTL
Protocol: The relative potency and selectivity of compounds of the instant invention for mGlu1 receptors is evaluated using stable clonal cell lines expressing recombinant mGlu1, 2, 3, 4. 5 or 8 receptors transfected into AV12 cell lines containing the rat EAAT1 glutamate transporter (RGT) cells.
For example, in more detail, compounds of the present invention are evaluated for effects on glutamate induced calcium flux responses using an AV-12 cell line expressing human recombinant mGlu1a receptor protein (see Kingston et al. Neuropharmacology. 37(1):1-12, 1998). mGlu1 receptor mediated responses are determined by changes in intracellular calcium concentrations measured by a fluorescent calcium sensitive dye Fluo-3. […] Unincorporated extracellular dye is removed from the wells by washing with buffer solution, and plates are then transferred to a 96-channel fluorimetric imaging plate reader (FLIPR-Molecular Devices Corporation, La Jolla, Calif., USA). Baseline fluorescence readings are undertaken for 10 sec prior to addition of test compounds by an automatic pipetting device integral to the FLIPR instrument. Following a 20 sec delay, glutamate is then added to the wells at an EC90% concentration (10 μM); and changes in fluorescence are monitored over 60 sec. […] IC50 values are calculated using a 4 parameter logistic curve fitting program (GraphPad Prism™ V4 or Activity Base™ V5.3 software).

non-fasted male HSD rats = assay: L5/L6 Spinal Nerve ligation model; type: in vivo, rat; settings: non-fasted male HSD rats (300-350 g), at doses with no deficit in the rotorod test
Protocol: as §1, §2

[5] = tested on: fasted male Harlan Sprague Dawley rats; assay: Carrageenan model; type: in vivo, rat; settings: fasted male HSD rats, at doses with no deficit in the rotorod test
Protocol: as §1, §2

[6] = in vivo; cited from earlier work
[7] = in vivo; cited from earlier work; remark: listed apart in the source

Row | performance in the rotorod test (Male Sprague Dawley rats) | IC50 [4] [nM] | SMILES | activity in the capsaicin model [1] | activity in the tail flick model [2] | activity in the formalin model ([3]; fasted male HSD rats, at doses with no deficit in the rotorod test) | late phase pain behavior (paw-licking, 15-40 minutes) ([3]; fasted rats, 3 to 60 mg/kg, p.o., 1 hour prior to formalin) | activity in the L5/L6 spinal nerve ligation model (non-fasted male HSD rats) | activity in the carrageenan model [5] | late phase pain behavior (paw-licking, 15-40 minutes) ([3]; 1 to 30 mg/kg) | mechanical allodynia in the L5/L6 spinal nerve ligation model [6] | nocifensive responses in the formalin test [7]
1 | no deficit in performance | < 20 | COc1ccc(-c2nsc(NC(=O)[C@@H]3C[C@H]3C)c2C)cc1 [Example 1, (R,R)—N-[3-(4-methoxyphenyl)-4-methylisothiazol-5-yl]-2-methylcyclopropanecarboxamide] | dose-dependent activity | dose-dependent activity | dose-dependent activity | dose dependent attenuation | dose-dependent activity | dose-dependent activity |  |  | 
2 |  | < 20 | Cc1c(-c2ccc(Cl)cc2)nsc1NC(=O)[C@@H]1C[C@H]1C [Example 6, (R,R)—N-[3-(4-chlorophenyl)-4-methylisothiazol-5-yl]-2-methylcyclopropanecarboxamide] |  |  |  |  |  |  | dose dependent attenuation |  | 
3 |  |  | COc1ccc(Nc2ncnc3ccc(OC)cc23)cc1 [LY456236] |  |  |  |  |  |  |  | can reduce | can reduce nocifensive responses
